Source: patent publication US10597388B2, “Pyridazinone herbicides” (FMC CORPORATION, priority 2014, dated 2020)

Legend:
Assay in all cases: Test D controlled growth environment herbicide test, pre- and postemergence
Type in all cases: in vivo
[1] = system: field poppy (Papaver rhoeas)
Description: (§1) Seeds of plant species selected from bluegrass (annual bluegrass, Poa annua), blackgrass (Alopecurus myosuroides), Canada thistle (Cirsium arvense), canarygrass (Phalaris minor), chickweed (common chickweed, Stellaria media), geranium, cutleaf (cutleaf geranium, Geranium dissectum), galium (catchweed bedstraw, Galium aparine), bromegrass, downy (downy bromegrass, Bromus tectorum), field poppy (Papaver rhoeas), field violet (Viola arvensis), foxtail, green (green foxtail, Setaria viridis), deadnettle (henbit deadnettle, Lamium amplexicaule), ryegrass, Italian (Italian ryegrass, Lolium multiflorum), kochia (Kochia scoparia), lambsquarters (Chenopodium album), oilseed rape (Brassica napus), pigweed (Amaranthus retroflexus), chamomile (scentless chamomile, Matricaria inodora), Russian thistle (Salsola kali), speedwell (bird's-eye speedwell, Veronica persica), barley, spring (spring barley, Hordeum vulgare), wheat, spring (spring wheat, Triticum aestivum), buckwheat, wild (wild buckwheat, Polygonum convolvulus), mustard, wild (wild mustard, Sinapis arvensis), oat, wild (wild oat, Avena fatua), radish, wild (wild radish, Raphanus raphanistrum), windgrass (Apera spica-venti), barley, winter (winter barley, Hordeum vulgare), and wheat, winter (winter wheat, Triticum aestivum) were planted into a silt loam soil and treated preemergence with test chemicals formulated in a non-phytotoxic solvent mixture which included a surfactant.
(§2) At the same time, these species were planted in pots containing Redi-Earth® planting medium (Scotts Company, 14111 Scottslawn Road, Marysville, Ohio 43041) comprising spaghnum peat moss, vermiculite, wetting agent and starter nutrients and treated with postemergence applications of the test chemicals formulated in the same manner. Plants ranged in height from 2 to 18 cm (1- to 4-leaf stage). Treated plants and controls were maintained in a controlled growth environment for 14 to 21 d after which time all species were compared to controls and visually evaluated. Plant response ratings, summarized in Table D, are based on a scale of 0 to 100 where 0 is no effect and 100 is complete control. A dash (-) response means no test result.

[2] = system: bluegrass (annual bluegrass, Poa annua)
Description: as §1, §2

[3] = system: mustard, wild (wild mustard, Sinapis arvensis)
Description: as §1, §2

[4] = system: buckwheat, wild (wild buckwheat, Polygonum convolvulus)
Description: as §1, §2

[5] = system: barley, winter (winter barley, Hordeum vulgare)
Description: as §1, §2

[6] = system: canarygrass (Phalaris minor)
Description: as §1, §2

[7] = system: pigweed (Amaranthus retroflexus)
Description: as §1, §2

[8] = system: oilseed rape (Brassica napus)
Description: as §1, §2

[9] = system: foxtail, green (green foxtail, Setaria viridis)
Description: as §1, §2

[10] = system: barley, spring (spring barley, Hordeum vulgare)
Description: as §1, §2

[11] = system: oat, wild (wild oat, Avena fatua)
Description: as §1, §2

[12] = system: galium (catchweed bedstraw, Galium aparine)
Description: as §1, §2

[13] = system: wheat, spring (spring wheat, Triticum aestivum)
Description: as §1, §2

[14] = Postemergence, 31 g ai/ha, scale 0 to 100 (0 no effect, 100 complete control)
[15] = Postemergence, 125 g ai/ha, visual rating on scale 0 (no effect) to 100 (complete control), 14 to 21 d
[16] = Postemergence, 250 g ai/ha, scale 0 to 100 (0 no effect, 100 complete control)
[17] = Preemergence, 62 g ai/ha, scale 0 to 100 (0 no effect, 100 complete control)
[18] = Preemergence, 125 g ai/ha, scale 0 to 100 (0 no effect, 100 complete control)
[19] = Preemergence, 250 g ai/ha, scale 0 to 100, 0 no effect, 100 complete control
[20] = postemergence, 62 g ai/ha, scale 0 to 100, 0 no effect, 100 complete control

## Cc1ccc2sc(C)c(-c3c(OC(=O)OC(C)C)c(C)nn(C)c3=O)c2c1 [Compound 66]
[1]; [14]
  Field Poppy plant response rating: 70
[1]; [15]
  Plant response rating, Field Poppy: 95
[1]; [16]
  Plant response rating, Field Poppy: 95
[1]; Preemergence, 31 g ai/ha
  Plant response rating (scale of 0 to 100), Field Poppy: 100
[1]; [17]
  Plant response rating, Field Poppy: 100
[1]; [18]
  Plant response rating, Field Poppy: 100
[1]; [19]
  Plant response rating, Field Poppy: 100
[1]; [20]
  Plant response rating, Field Poppy: 85
[2]; [14]
  Bluegrass plant response rating: 0
[2]; [15]
  Plant response rating, Bluegrass: 30
[2]; [16]
  Plant response rating, Bluegrass: 35
[2]; Preemergence, 31 g ai/ha
  Plant response rating (scale of 0 to 100), Bluegrass: 10
[2]; [17]
  Plant response rating, Bluegrass: 15
[2]; [18]
  Plant response rating, Bluegrass: 25
[2]; [19]
  Plant response rating, Bluegrass: 30
[2]; [20]
  Plant response rating, Bluegrass: 25
[3]; [14]
  Mustard, Wild plant response rating: 10
[3]; [15]
  Plant response rating, Mustard, Wild: 55
[3]; [16]
  Plant response rating, Mustard, Wild: 70
[3]; Preemergence, 31 g ai/ha
  Plant response rating (scale of 0 to 100), Mustard, Wild: 0
[3]; [17]
  Plant response rating, Mustard, Wild: 0
[3]; [18]
  Plant response rating, Mustard, Wild: 0
[3]; [19]
  Plant response rating, Mustard, Wild: 0
[3]; [20]
  Plant response rating, Mustard, Wild: 40
[4]; [14]
  Buckwheat, Wild plant response rating: 95
[4]; [15]
  Plant response rating, Buckwheat, Wild: 100
[4]; [16]
  Plant response rating, Buckwheat, Wild: 100
[4]; Preemergence, 31 g ai/ha
  Plant response rating (scale of 0 to 100), Buckwheat, Wild: 0
[4]; [17]
  Plant response rating, Buckwheat, Wild: 0
[4]; [18]
  Plant response rating, Buckwheat, Wild: 0
[4]; [19]
  Plant response rating, Buckwheat, Wild: 0
[4]; [20]
  Plant response rating, Buckwheat, Wild: 100
[5]; [14]
  Barley, Winter plant response rating: 0
[5]; [15]
  Plant response rating, Barley, Winter: 0
[5]; [16]
  Plant response rating, Barley, Winter: 5
[5]; Preemergence, 31 g ai/ha
  Plant response rating (scale of 0 to 100), Barley, Winter: 0
[5]; [17]
  Plant response rating, Barley, Winter: 0
[5]; [18]
  Plant response rating, Barley, Winter: 0
[5]; [19]
  Plant response rating, Barley, Winter: 10
[5]; [20]
  Plant response rating, Barley, Winter: 0
[6]; [14]
  Canarygrass plant response rating: 55
[6]; [15]
  Plant response rating, Canarygrass: 70
[6]; [16]
  Plant response rating, Canarygrass: 85
[6]; Preemergence, 31 g ai/ha
  Plant response rating (scale of 0 to 100), Canarygrass: 25
[6]; [17]
  Plant response rating, Canarygrass: 80
[6]; [18]
  Plant response rating, Canarygrass: 85
[6]; [19]
  Plant response rating, Canarygrass: 95
[6]; [20]
  Plant response rating, Canarygrass: 65
[7]; [14]
  Pigweed plant response rating: 95
[7]; [15]
  Plant response rating, Pigweed: 100
[7]; [16]
  Plant response rating, Pigweed: 100
[7]; Preemergence, 31 g ai/ha
  Plant response rating (scale of 0 to 100), Pigweed: 30
[7]; [17]
  Plant response rating, Pigweed: 100
[7]; [18]
  Plant response rating, Pigweed: 100
[7]; [19]
  Plant response rating, Pigweed: 100
[7]; [20]
  Plant response rating, Pigweed: 100
[8]; [14]
  Oilseed Rape plant response rating: 0
[8]; [15]
  Plant response rating, Oilseed Rape: 65
[8]; [16]
  Plant response rating, Oilseed Rape: 75
[8]; Preemergence, 31 g ai/ha
  Plant response rating (scale of 0 to 100), Oilseed Rape: 35
[8]; [17]
  Plant response rating, Oilseed Rape: 35
[8]; [18]
  Plant response rating, Oilseed Rape: 35
[8]; [19]
  Plant response rating, Oilseed Rape: 35
[8]; [20]
  Plant response rating, Oilseed Rape: 20
[9]; [14]
  Foxtail, Green plant response rating: 75
[9]; [15]
  Plant response rating, Foxtail, Green: 90
[9]; [16]
  Plant response rating, Foxtail, Green: 98
[9]; Preemergence, 31 g ai/ha
  Plant response rating (scale of 0 to 100), Foxtail, Green: 15
[9]; [17]
  Plant response rating, Foxtail, Green: 35
[9]; [18]
  Plant response rating, Foxtail, Green: 65
[9]; [19]
  Plant response rating, Foxtail, Green: 70
[9]; [20]
  Plant response rating, Foxtail, Green: 80
[10]; [14]
  Barley, Spring plant response rating: 0
[10]; [15]
  Plant response rating, Barley, Spring: 5
[10]; [16]
  Plant response rating, Barley, Spring: 15
[10]; Preemergence, 31 g ai/ha
  Plant response rating (scale of 0 to 100), Barley, Spring: 0
[10]; [17]
  Plant response rating, Barley, Spring: 0
[10]; [19]
  Plant response rating, Barley, Spring: 10
[10]; [20]
  Plant response rating, Barley, Spring: 0
[11]; [14]
  Oat, Wild plant response rating: 85
[11]; [15]
  Plant response rating, Oat, Wild: 100
[11]; [16]
  Plant response rating, Oat, Wild: 100
[11]; Preemergence, 31 g ai/ha
  Plant response rating (scale of 0 to 100), Oat, Wild: 75
[11]; [17]
  Plant response rating, Oat, Wild: 85
[11]; [18]
  Plant response rating, Oat, Wild: 85
[11]; [19]
  Plant response rating, Oat, Wild: 90
[11]; [20]
  Plant response rating, Oat, Wild: 95
[12]; [14]
  Galium plant response rating: 85
[12]; [15]
  Plant response rating, Galium: 100
[12]; [16]
  Plant response rating, Galium: 100
[12]; Preemergence, 31 g ai/ha
  Plant response rating (scale of 0 to 100), Galium: 0
[12]; [17]
  Plant response rating, Galium: 20
[12]; [18]
  Plant response rating, Galium: 65
[12]; [19]
  Plant response rating, Galium: 75
[12]; [20]
  Plant response rating, Galium: 100
[13]; [14]
  Wheat, Spring plant response rating: 0
[13]; [15]
  Plant response rating, Wheat, Spring: 0
[13]; [16]
  Plant response rating, Wheat, Spring: 5
[13]; Preemergence, 31 g ai/ha
  Plant response rating (scale of 0 to 100), Wheat, Spring: 0
[13]; [17]
  Plant response rating, Wheat, Spring: 0
[13]; [18]
  Plant response rating, Wheat, Spring: 5
[13]; [19]
  Plant response rating, Wheat, Spring: 20
[13]; [20]
  Plant response rating, Wheat, Spring: 0
